Data published in US9266864B2, “VEGFR3 inhibitors” (CANCER THERAPEUTICS CRC PTY LIMITED, priority 2012, dated 2016).

Biological target: T1, P397Y-FAK (Homo sapiens, UniProt Q05397)
T1 construct: endogenous in cells; host or cells: MDA-231-LNA
Experiment: P397Y-FAK Inhibition MSD Platform Cellular Biomarker Assay
Type: cell-based
Conditions: MDA-231-LNA cells; concentration not given
Experimental: 96-well plates (cat#MA6000, Meso Scale Discovery) are coated with 30 μL/well of mouse monoclonal FAK antibody [63D5] (cat#ab72140, Abcam) pre-diluted in PBS to a concentration of 1 mg/mL. The plates are sealed with adhesive film and incubated for 16 hours at 4° C. The antibody is then flicked out of the plates and 150 μL of 3% [w/v] Blocker A (cat#R93AA-1, Meso Scale Discovery) is added. The plates are resealed with adhesive film and incubated at room temperature on a shaker set at medium speed for 2 hours. The plates are then washed three times with a solution containing 50 mM Tris-HCl pH 7.5, 0.15 M NaCl and 0.02% Tween-20, before cell lysate addition described below.
Cells are split 1:2 into T150 cell culture flasks 2 days prior to compound treatment. On the day prior to compound treatment, 200 μL media containing 20,000 cells is seeded into all wells of white, clear-bottom, TC treated, μclear, 96-well microtitre plates (cat#655098, Greiner Bio-One), and the plates are incubated at 37° C. and 5% CO2 for 36 hours. 1 μL/well of compound is then added from dilution series prepared in DMSO. […] 150 μL/well of Read Buffer T+Surfactant (cat#R92TC-1, Meso Scale Discovery) is then added, and pFAK-397 levels quantified using a Meso Scale Discovery SECTOR Imager 6000 instrument. […]

T1 sequence (Q05397 2-1052 limits assumed, stated change not applied): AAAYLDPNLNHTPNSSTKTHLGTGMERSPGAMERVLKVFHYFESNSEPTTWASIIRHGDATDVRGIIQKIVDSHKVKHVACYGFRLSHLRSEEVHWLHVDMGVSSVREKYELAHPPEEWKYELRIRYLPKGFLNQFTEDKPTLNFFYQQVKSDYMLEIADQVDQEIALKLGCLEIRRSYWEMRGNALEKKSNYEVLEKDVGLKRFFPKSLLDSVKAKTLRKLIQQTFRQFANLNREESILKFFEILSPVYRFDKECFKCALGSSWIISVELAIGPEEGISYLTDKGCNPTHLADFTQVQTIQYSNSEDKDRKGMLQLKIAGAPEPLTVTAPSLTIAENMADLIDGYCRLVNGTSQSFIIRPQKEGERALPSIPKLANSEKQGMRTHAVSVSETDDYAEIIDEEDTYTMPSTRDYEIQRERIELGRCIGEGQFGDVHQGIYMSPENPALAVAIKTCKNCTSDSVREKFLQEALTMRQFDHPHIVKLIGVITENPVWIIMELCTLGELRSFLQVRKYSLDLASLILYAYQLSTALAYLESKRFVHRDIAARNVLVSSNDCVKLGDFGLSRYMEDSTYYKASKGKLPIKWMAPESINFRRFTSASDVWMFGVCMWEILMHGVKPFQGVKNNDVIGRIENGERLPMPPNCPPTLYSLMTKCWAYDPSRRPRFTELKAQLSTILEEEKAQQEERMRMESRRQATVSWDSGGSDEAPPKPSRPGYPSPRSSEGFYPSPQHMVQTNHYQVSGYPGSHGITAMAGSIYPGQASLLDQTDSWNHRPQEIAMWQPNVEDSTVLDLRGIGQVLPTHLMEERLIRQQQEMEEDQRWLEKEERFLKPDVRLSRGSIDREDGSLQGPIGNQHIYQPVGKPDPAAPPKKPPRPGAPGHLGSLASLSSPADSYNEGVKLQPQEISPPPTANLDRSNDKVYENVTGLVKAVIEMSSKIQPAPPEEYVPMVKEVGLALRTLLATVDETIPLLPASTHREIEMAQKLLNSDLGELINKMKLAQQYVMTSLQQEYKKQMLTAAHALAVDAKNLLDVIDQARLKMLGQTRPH

## NC(=O)Cc1ccccc1CCc1nc(Nc2ccc(C3CNC3)cc2)ncc1C(F)(F)F [Compound 20, 2-(2-(2-(2-((4-(azetidin-3-yl)phenyl)amino)-5-(trifluoromethyl)pyrimidin-4-yl)ethyl)phenyl)acetamide]
  P397Y-FAK inhibition (percent printed in the IC50 column): <50%
